Patent publication US20240368163A1, “COMPOUNDS AND METHODS FOR MODULATING SPLICING” (REMIX THERAPEUTICS INC., priority 2021, published 2024)

Key:
Type in all cases: cell-based, human
HTT [1] = experiment: HiBiT protein abundance assay, HTT; conditions: Homo sapiens, K562, 24 h, Table 13A, modified K562 cells
Outline: (§1)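 Tagged-target degradation assay: HiBiT-modified K562 cells treated 24 h with compound, 10 concentrations up to 10 μM final. Following lysis with LgBiT and substrate, luminescence gave normalized abundance; IC50 derived by logistic interpolation at 50%.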

MYB [2] = experiment: HiBiT protein abundance assay, MYB; conditions: Homo sapiens, K562, 24 h, Table 13A, modified K562 cells
Outline: as §1

SMN2 = experiment: Splicing RT-qPCR panel, SMN2 canonical junction (CJ) mRNA; conditions: Homo sapiens, RT-qPCR panel, canonical junction mRNA; compound concentration having 50% response in CJ decrease; read-out: SMN2 IC50 (decrease in CJ mRNA levels)
Protocol: (§2) Compounds described herein were used to modulate RNA transcript abundance in cells. The expression of a target mRNA was measured by detecting the formation of an exon-exon junction in the canonical transcript (CJ). A compound mediated exon-inclusion event was detected by observing an increase in formation of a new junction with an alternative exon (AJ). Real-time qPCR assays were used to detect these splicing switches and interrogate the potency of various compounds towards different target genes. A high-throughput real time quantitative PCR (RT-qPCR) assay was developed to measure these two isoforms of the mRNA (CJ and AJ) for exemplary genes, such as HTT, SMN2, and MYB, together with a control housekeeping gene, GAPDH or GUSB or PPIA, used for normalization. Briefly, the A673 or K562 cell line was treated with various compounds described herein (e.g., compounds of Formula (I)). After treatment, the levels of the HTT, MYB, or SMN2 mRNA targets were determined from each sample of cell lysate by cDNA synthesis followed by qPCR.
(§3) The A673 cell line was cultured in DMEM with 10% FBS. Cells were diluted with full growth media and plated in a 96-well plate (15,000 cells in 100 ul media per well). The plate was incubated at 37° C. with 5% CO2 for 24 hours to allow cells to adhere. An 11-point 3-fold serial dilution of the compounds was made in DMSO then diluted in media in an intermediate plate. Compounds were transferred from the intermediate plate to the cell plate with the top dose at a final concentration of 10 uM in the well. Final DMSO concentration was kept at or below 0.25%. The cell plate was returned to the incubator at 37° C. with 5% CO2 for an additional 24 hours.
(§4) The K562 cell line was cultured in IMDM with 10% FBS. For K562, cells were diluted with full growth media and plated in either a 96-well plate (50,000 cells in 50 uL media per well) or a 384-well plate (8,000-40,000 cells in 45 uL media per well). An 11-point 3-fold serial dilution of the compounds were made in DMSO then diluted in media in an intermediate plate. Compound was transferred from the intermediate plate to the cell plate with the top dose at a final concentration of 10 uM in the well. Final DMSO concentration was kept at or below 0.25%. Final volume was 100 uL for 96-well plate and 50 uL for 384-well plate. The cell plate was then placed in an incubator at 37° C. with 5% CO2 for 24 hours.
(§5) The cells were then gently washed with 50 uL-100 uL cold PBS before proceeding to addition of lysis buffer. 30 uL-50 μL of room temperature lysis buffer with DNAse I (and optionally RNAsin) was added to each well. Cells were shaken/mixed thoroughly at room temperature for 5-10 minutes for lysis to take place and then 3 uL-5 μL of room temperature stop solution was added and wells were shaken/mixed again. After 2-5 minutes, the cell lysate plate was transferred to ice for RT-qPCR reaction setup. The lysates could also be frozen at −80° C. for later use.
(§6) In some cases, a direct lysis buffer was used. An appropriate volume of 3× lysis buffer (10 mM Tris, 150 mM NaCl, 1.5%-2.5% Igepal and 0.1-1 U/uL RNAsin, pH 7.4) was directly added to either K562 or A673 cells in media and mixed by pipetting 3 times. The plates were then incubated at room temperature with shaking/rocking for 20-50 minutes to allow for lysis to take place. After this time, the cell lysate plate was transferred to ice to set up for the RT-qPCR reactions. The lysates could also be frozen at −80° C. for later use.
(§7) To set up 10 uL RT-qPCR reactions, cell lysates were transferred to 384-well qPCR plates containing the master mix according to the table below. The plates were sealed, gently vortexed, and spun down before the run. The volumes were adjusted accordingly in some instances where the reaction was carried in 20 μL. The table below summarizes the components of the RT-qPCR reactions:
(§8) The RT-qPCR reaction was performed using a QuantStudio (ThermoFisher) under the following fast cycling conditions. […]

MYB [3] = experiment: Splicing RT-qPCR assay, MYB mRNA canonical junction (CJ) and alternative junction (AJ); conditions: Homo sapiens; for AC50: increase in AJ mRNA
Outline: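 First, A673 cells adhered 24 h, while K562 cells were plated directly. Next, compounds were added as an 11-point 3-fold series from 10 uM for 24 h. Finally, lysates went to RT-qPCR, with 2^(−ΔΔCt) values converted to percentage response.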

HTT [4] = experiment: Splicing RT-qPCR assay, HTT mRNA canonical junction (CJ) and alternative junction (AJ); conditions: Homo sapiens; for AC50: increase in AJ mRNA
Protocol: as §2, §3, §4, §5, §6, §7, §8

Target C [5] = experiment: Splicing RT-qPCR panel, Target C canonical junction (CJ) mRNA; conditions: Homo sapiens, RT-qPCR panel, canonical junction mRNA; compound concentration having 50% response in CJ decrease; read-out: Target C IC50 (decrease in CJ mRNA levels)
Protocol: as §2, §3, §4, §5, §6, §7, §8

Target C [6] = experiment: HiBiT protein abundance assay, Target C; conditions: Homo sapiens, K562, 24 h, Table 13A, modified K562 cells
Outline: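 Target tagged with HiBiT by knock-in; 24 h dosing, 10 μM top final in 3-fold steps. IC50 from 4PL fit of normalized luminescence.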

[7] = 24 h, decrease in CJ mRNA, A673 or K562 cells, 24 hours treatment, RT-qPCR, read-out: MYB CJ IC50
[8] = 24 h, A673 or K562 cells, 24 hours treatment, RT-qPCR
[9] = RT-qPCR panel, canonical junction mRNA, compound concentration having 50% response in CJ decrease, read-out: MYB IC50 (decrease in CJ mRNA levels)
[10] = 24 h, decrease in CJ mRNA, A673 or K562 cells, 24 hours treatment, RT-qPCR, read-out: HTT CJ IC50
[11] = RT-qPCR panel, canonical junction mRNA, compound concentration having 50% response in CJ decrease, read-out: HTT IC50 (decrease in CJ mRNA levels)

Row | SMILES | IC50 (HTT [1]) [µM] | IC50 (MYB [2]) [µM] | IC50 (SMN2) [µM] | IC50 (MYB [3]; [7]) [µM] | AC50 (MYB [3]; [8]) [µM] | IC50 (MYB [3]; [9]) [µM] | IC50 (HTT [4]; [10]) [µM] | AC50 (HTT [4]; [8]) [µM] | IC50 (HTT [4]; [11]) [µM] | IC50 (Target C [5]) [µM] | IC50 (Target C [6]) [µM]
1 | CN(c1ccc(-c2ccc(-c3cnn(C)c3)c3scnc23)nn1)C1CC(C)(C)NC(C)(C)C1 [Compound 175] | 1 to 10 | 1 to 10 | 1 to 10 | > 10 | 1 to 10 | > 10 | > 10 | 1 to 10 | > 10 | > 10 | 1 to 10
2 | Cc1[nH]ncc1-c1ccc(-c2ccc(N(C)C3CC(C)(C)NC(C)(C)C3)nn2)c2ncsc12 [Compound 176] | 1 to 10 | 1 to 10 | > 10 | > 10 | > 10 | > 10 | > 10 | > 10 | > 10 | > 10 | 1 to 10
3 | COc1cc(-c2ccc(-c3ccc(N(C)C4CC(C)(C)NC(C)(C)C4)nn3)c3ncsc23)ccn1 [Compound 177] | 1 to 10 | 1 to 10 | 1 to 10 | 1 to 10 | > 10 | 1 to 10 | > 10 | > 10 | > 10 | > 10 | 1 to 10
4 | CN(c1ccc(-c2ccc(-c3cnc(=O)[nH]c3)c3scnc23)nn1)C1CC(C)(C)NC(C)(C)C1 [Compound 179] | 0.1 to 1 | 0.1 to 1 | 0.1 to 1 | 0.1 to 1 | 0.1 to 1 | 0.1 to 1 | 0.1 to 1 | 0.1 to 1 | 0.1 to 1 | 0.1 to 1 | 0.1 to 1
5 | CN(c1ccc(-c2ccc(-c3ccc(=O)[nH]c3)c3scnc23)nn1)C1CC(C)(C)NC(C)(C)C1 [Compound 180] | 0.1 to 1 | 0.1 to 1 | 0.1 to 1 | 0.1 to 1 | 0.1 to 1 | 0.1 to 1 | 0.1 to 1 | 0.1 to 1 | 0.1 to 1 | 0.1 to 1 | 0.1 to 1
6 | CC1(C)CC(Oc2ccc(-c3ccc(-c4cn[nH]c4)c4ncsc34)nn2)CC(C)(C)N1 [Compound 181] | < 0.1 | < 0.1 | < 0.1 | > 10 | > 10 | > 10 | > 10 | > 10 | > 10 | > 10 | < 0.1
7 | c1nc2c(-c3cn[nH]c3)ccc(-c3ccc(N4CCNCC4)nn3)c2s1 [Compound 185] | 1 to 10 | 1 to 10 | 0.1 to 1 | 1 to 10 | > 10 | 1 to 10 | > 10 | 1 to 10 | > 10 | > 10 | 1 to 10
8 | c1nc2c(-c3cn[nH]c3)ccc(-c3ccc(N4CC5(CCCNC5)C4)nn3)c2s1 [Compound 187] | 1 to 10 | 1 to 10 | 1 to 10 | > 10 | > 10 | > 10 | > 10 | > 10 | > 10 | > 10 | > 10
9 | c1nc2c(-c3cn[nH]c3)ccc(-c3ccc(N4CCC5(CC4)CNC5)nn3)c2s1 [Compound 188] | > 10 | > 10 | > 10 | > 10 | > 10 | > 10 | > 10 | > 10 | > 10 | > 10 | > 10
10 | c1nc2c(-c3cn[nH]c3)ccc(-c3ccc(N4CCCC5(CNC5)C4)nn3)c2s1 [Compound 189] | > 10 | > 10 | > 10 | > 10 | > 10 | > 10 | > 10 | > 10 | > 10 | > 10 | > 10
